Results reported in patent US20090247497A1, “FORMULATION AND USE OF ERGOSTA-7,22-DIEN-3BETA-OL” (priority 2008, published 2009).

System: human promyelocytic leukemia HL-60 cells
Assay: in vivo anti-tumor (anti-leukemia) study, HL-60 xenografts in nude mice
Parameters: species or system Athymic nude mice (BALB/c nu/nu)
Conditions: for % inhibition for 1.5 mg/kg/day dosage group: 1.5 mg/kg/day oral (gastric gavage), from relative tumor weight vs control
Protocol: The following study on nude mice was conducted to investigate the in vivo anti-tumor activities, specifically the anti-leukemia effects, of ergosta-7,22-dien-3β-ol.
Athymic nude mice (BALB/c nu/nu, with body weight of 20-25 g and aged 6-10 weeks) were kept in autoclaved cages with polyester fiber filters to avoid contact with the pathogens. All the animal diet and tap water were autoclaved before feeding to nude mice ad libitum.
Suspension of 1×10^7 of human promyelocytic leukemia HL-60 cells was then injected subcutaneously (s.c.) into the dorsal side of nude mice.
In this study, the tested item was the powders of ergosta-7,22-dien-3β-ol obtained according to the method described in Example 1 above.
When palpable tumors (about 100-200 mm^3 in volume) arose within 14-21 days after injection, the mice were randomly divided into three treatment groups and one control group in which each group consisted of 15 mice. Then, the mice in the treatment group were administrated with the tested item at three dose levels of 1.5, 15.0 or 50.0 mg (of tested item)/kg (of body weight of mouse)/day (in distilled water), while those mice in the control group were administrated with distilled water (as control vehicle). Both groups of mice were administrated by oral route (gastric gavage) daily (except Sundays) for up to 28 days. Tumor dimension was measured on every Mondays, Wednesdays and Fridays.
Tumor dimension was measured by Vernier caliper and tumor weight and tumor volume were calculated according to the following formulae:
Tumor weight (mg)=L×W^2×π/6; and
Tumor volume (mm^3)=L×W×H×π/6;
where L, W, and H were the major dimension, the minor dimension, and the height of the tumor respectively (π=3.1416).
The relative tumor weight was calculated by dividing the tumor weight on a certain day by the mean tumor weight on Day 1. Similarly, the relative tumor volume was calculated by dividing the tumor volume on a certain day by the mean tumor volume on Day 1.
Upon 28 days of administration, the nude mice were euthanized and the final body and tumor weights were recorded for calculating the ratio of the final tumor-to-body weight.
The above-shown results were expressed as the mean±SE of the percentage of inhibition of the tested item on the growth of HL-60 xenografts in nude mice in single experiments. Percentage of inhibition (for any Day n) was calculated from the following formula:
(1−relative tumor weight of treatment group on Day n/relative tumor weight of control group on Day n)×100%.

[1] = 1.5, 15.0 or 50.0 mg/kg/day oral, up to 28 days, all three treatment groups, 1.5 mg/kg/day most significant

## CC(C)[C@@H](C)/C=C/[C@@H](C)[C@H]1CC[C@H]2C3=CCC4C[C@@H](O)CC[C@]4(C)[C@H]3CC[C@]12C (stereo partly drawn) [ergosta-7,22-dien-3β-ol]
1.5, 15.0 and 50.0 mg/kg/day oral, HL-60 xenografts in nude mice
  Anti-tumor activity: observed at all three dosage groups
1.5, 15.0 or 50.0 mg/kg/day oral, after 28 days, three treatment groups vs control, 1.5 mg/kg/day most significant
  percentage ratios of final tumor-to-body weight: lower than that of the control group
[1]
  relative tumor volume: some effects in the reductions
  relative tumor weight: some effects in the reductions
Day 1, HL-60 xenografts in nude mice
  % inhibition for 1.5 mg/kg/day dosage group: 0.00%
Day 3, HL-60 xenografts in nude mice
  % inhibition for 1.5 mg/kg/day dosage group: 11.35%
Day 5, HL-60 xenografts in nude mice
  % inhibition for 1.5 mg/kg/day dosage group: 11.24%
Day 8, HL-60 xenografts in nude mice
  % inhibition for 1.5 mg/kg/day dosage group: 23.69%
Day 10, HL-60 xenografts in nude mice
  % inhibition for 1.5 mg/kg/day dosage group: 31.65%
Day 12, HL-60 xenografts in nude mice
  % inhibition for 1.5 mg/kg/day dosage group: 32.32%
Day 15, HL-60 xenografts in nude mice
  % inhibition for 1.5 mg/kg/day dosage group: 30.61%
Day 17, HL-60 xenografts in nude mice
  % inhibition for 1.5 mg/kg/day dosage group: 34.99%
Day 19, HL-60 xenografts in nude mice
  % inhibition for 1.5 mg/kg/day dosage group: 43.19%
Day 22, HL-60 xenografts in nude mice
  % inhibition for 1.5 mg/kg/day dosage group: 38.94%
Day 24, HL-60 xenografts in nude mice
  % inhibition for 1.5 mg/kg/day dosage group: 40.57%
Day 26, HL-60 xenografts in nude mice
  % inhibition for 1.5 mg/kg/day dosage group: 44.32%
